For data set [1], the system named is Escherichia coli. Description: Antibacterial activity against Escherichia coli NCIM 2065 at 500 ug/disk after 24 hr by disk diffusion method. The data set is classed as functional. As to conditions: NCIM 2065, 24 h, read-out: IZ. (A growth-free zone around the sample is the usual read-out of agar diffusion tests.)
Data set [2] concerns Candida albicans. As to the kind of experiment: Antifungal activity against Candida albicans NCIM 3074 at 500 ug/disk after 24 hr by disk diffusion method. Type of data set: functional. The following applies: NCIM 3074, 24 h, read-out: IZ.
Data set [3] concerns Staphylococcus aureus. Description: Antibacterial activity against Staphylococcus aureus NCIM 5021 at 500 ug/disc after 24 hr by disk diffusion method. The following applies: NCIM 5021, 24 h, read-out: IZ. The data set is classed as functional.
Data set [4] relates to Nakaseomyces glabratus. As to the kind of experiment: Antifungal activity against Candida glabrata NCIM 3236 at 500 ug/disk after 24 hr by disk diffusion method. Type of data set: functional. As to conditions: NCIM 3236, 24 h, read-out: IZ.
For data set [5], the system named is Escherichia coli. As to the kind of experiment: Bacteriostatic activity against Escherichia coli NCIM 2065 at 500 ug/disk after 24 hr by disk diffusion method. Type of data set: functional, organism-based.
Data set [6] has as its system Nakaseomyces glabratus. Description: Fungistatic activity against Candida glabrata NCIM 3236 at 500 ug/disk after 24 hr by disk diffusion method. Type of data set: functional, organism-based.
Data set [7] deals with Candida albicans. As to the kind of experiment: Fungistatic activity against Candida albicans NCIM 3074 at 500 ug/disk after 24 hr by disk diffusion method. Type of data set: functional, organism-based.
Data set [8] relates to Staphylococcus aureus. As to the kind of experiment: Bacteriostatic activity against Staphylococcus aureus NCIM 5021 at 500 ug/disc after 24 hr by disk diffusion method. The data set is classed as functional, organism-based.
For data set [9], the system named is Nakaseomyces glabratus. Description: Fungistatic activity against Candida glabrata NCIM 3236 at 25 ug/disk after 24 hr by disk diffusion method. Type of data set: functional, organism-based.
Data set [10] deals with Candida albicans. Description: Fungistatic activity against Candida albicans NCIM 3074 at 25 ug/disk after 24 hr by disk diffusion method. Type of data set: functional, organism-based.
Data set [11] relates to Escherichia coli. Description: Bacteriostatic activity against Escherichia coli NCIM 2065 at 20 ug/disk after 24 hr by disk diffusion method. Type of data set: functional, organism-based.
The test system of data set [12] is Staphylococcus aureus. As to the kind of experiment: Bacteriostatic activity against Staphylococcus aureus NCIM 5021 at 20 ug/disc after 24 hr by disk diffusion method. The data set is classed as functional, organism-based.
For data set [13], the system named is Candida albicans. As to the kind of experiment: Antifungal activity against Candida albicans NCIM 3074 after 24 hr by NCCLS broth microdilution method. Type of data set: functional. As to conditions: NCIM 3074, 24 h.
Data set [14] relates to Candida albicans. As to the kind of experiment: Antifungal activity against Candida albicans NCIM 3074 assessed as inhibition of germ tube formation after 3 to 4 hr. The data set is classed as functional.
Data set [15] concerns Candida albicans. Description: Fungicidal activity against Candida albicans NCIM 3074 after 24 hr by NCCLS broth microdilution method. The data set is classed as functional. As to conditions: NCIM 3074, 24 h. (In broth dilution the organism is exposed to a series of concentrations in liquid medium.)
Data set [16] concerns Staphylococcus aureus. Description: Bactericidal activity against Staphylococcus aureus NCIM 5021 after 24 hr by NCCLS broth microdilution method. The data set is classed as functional. The following applies: NCIM 5021, 24 h.
In data set [17] the test system is Staphylococcus aureus. As to the kind of experiment: Antibacterial activity against Staphylococcus aureus NCIM 5021 after 24 hr by NCCLS broth microdilution method. Type of data set: functional. The following applies: NCIM 5021, 24 h.
The test system of data set [18] is Candida albicans. Description: Inhibition of Candida albicans phospholipase at 124.96 uM after 30 min.
Data set [19] in a line: Cytotoxicity against Homo sapiens (human) erythrocytes assessed as hemolytic activity at 124.96 uM after 1 hr. The data set is classed as cell-based, Erythrocyte. As to conditions: read-out: Activity.
A short description of data set [20]: Cytotoxicity against Homo sapiens (human) erythrocytes assessed as hemolytic activity at 15.62 uM after 1 hr. Type of data set: cell-based, Erythrocyte. As to conditions: read-out: Activity.

SMILES strings stand for the structures. The source made the active and inactive calls.

As for `CCCCCCCCn1ccc(=N)cc1`, the zone of inhibition at 500 µg/disc turned out to be 27 mm in the data set on Escherichia coli [1], 14 mm with Candida albicans [2], 25 mm with Staphylococcus aureus [3] and 22 mm with Nakaseomyces glabratus [4].

Take `CCC[n+]1ccc(N)cc1`: the outcome in the data set on Escherichia coli [5] and in the data set with Staphylococcus aureus [8] was Active. Besides, the result in the data set with Nakaseomyces glabratus [6] and with Candida albicans [7] was inactive.

For the molecule `CCCCCCn1ccc(=N)cc1`, the zone of inhibition at 500 µg/disc in the data set on Escherichia coli [1] came to 18 mm; with Staphylococcus aureus [3], 21 mm; in the data set on Nakaseomyces glabratus [4], 10 mm. Besides, the result in the data set with Candida albicans [7] was Active.

On to `CCCCCCCCCCCCCC[n+]1ccc(N)cc1`, for which the zone of inhibition at 500 µg/disc in the data set on Escherichia coli [1] was 6.5 mm; with Candida albicans [2], 9 mm; with Staphylococcus aureus [3] it was 6 mm; in the data set with Nakaseomyces glabratus [4] it was 8.5 mm.

For `CCCC[n+]1ccc(N)cc1`, the result with Escherichia coli [5] and in the data set on Staphylococcus aureus [8] was Active. Further, the outcome in the data set with Nakaseomyces glabratus [6] and in the data set with Candida albicans [7] was inactive.

As for `CN[C@@H]1[C@H](O[C@H]2[C@H](O[C@H]3[C@H](O)[C@@H](O)[C@H](N=C(N)N)[C@@H](O)[C@@H]3N=C(N)N)O[C@@H](C)[C@]2(O)C=O)O[C@@H](CO)[C@H](O)[C@H]1O` [STREPTOMYCIN], the zone of inhibition at 500 µg/disc in the data set on Escherichia coli [1] was found to be 32 mm; in the data set with Staphylococcus aureus [3], 30 mm. Moreover, the result in the data set with Nakaseomyces glabratus [9] and in the data set with Candida albicans [10] was inactive.

Take `CCn1ccc(=N)cc1`: the outcome in the data set with Escherichia coli [5], in the data set with Nakaseomyces glabratus [6], in the data set with Candida albicans [7] and in the data set with Staphylococcus aureus [8] was inactive.

For `CCCCCCC[n+]1ccc(N)cc1`, the zone of inhibition at 500 µg/disc with Escherichia coli [1] is 26 mm; in the data set with Candida albicans [2], 10.5 mm; in the data set with Staphylococcus aureus [3], 25 mm; with Nakaseomyces glabratus [4] it was 16 mm.

Consider `CCCCC[n+]1ccc(N)cc1`, for which the results for the zone of inhibition at 500 µg/disc in the data set on Escherichia coli [1] and in the data set on Staphylococcus aureus [3] were 16 mm and 14 mm, respectively. Also, the outcome with Nakaseomyces glabratus [6] was Active. Moreover, the outcome in the data set on Candida albicans [7] was inactive.

Turning to `C[C@@H]1[C@H](O)[C@@H](C)/C=C/C=C/C=C/C=C/C=C/C=C/C=C/[C@H](O[C@@H]2O[C@H](C)[C@@H](O)[C@H](N)[C@@H]2O)C[C@@H]2O[C@](O)(C[C@@H](O)C[C@@H](O)[C@H](O)CC[C@@H](O)C[C@@H](O)CC(=O)O[C@H]1C)C[C@H](O)[C@H]2C(=O)O` [AMPHOTERICIN B], the result in the data set on Escherichia coli [11] and with Staphylococcus aureus [12] was inactive. Besides, the zone of inhibition at 500 µg/disc came to 10 mm with Candida albicans [2] and 14 mm in the data set with Nakaseomyces glabratus [4].

The term MIC denotes the lowest concentration found to suppress growth. The low end stands for greater potency, the high end for weaker potency. The term MFC denotes the smallest concentration meeting the test's criterion for killing the fungus. A high value points to weaker fungicidal potency. By MBC is commonly meant the lowest tested concentration that kills the bacteria rather than only halting them. A lower MBC goes with greater bactericidal potency. Consider `CCCCCCCCCCCCCCCC[n+]1ccc(N)cc1.[Br-]`, for which the zone of inhibition at 500 µg/disc with Escherichia coli [1] amounted to 34 mm; in the data set on Candida albicans [2], 26.5 mm; in the data set with Staphylococcus aureus [3], 36 mm; in the data set on Nakaseomyces glabratus [4], 30 mm. Moreover, the MIC in the data set on Candida albicans [13] is 15.6 µM; with Staphylococcus aureus [17], less than 15.6 µM. Besides, the INH in the data set with Candida albicans [14] turned out to be 15.62 µM. Moreover, the MFC in the data set on Candida albicans [15] came out at 31.2 µM. Also, the minimal bactericidal concentration (MBC) in the data set with Staphylococcus aureus [16] turned out to be 15.6 µM.

`CCCCCCCCCCn1ccc(=N)cc1`: in the data set on Candida albicans [18], the inhibition entry is “Active”. In addition, the zone of inhibition at 500 µg/disc with Escherichia coli [1] turned out to be 29 mm; in the data set with Candida albicans [2], 23.5 mm; with Staphylococcus aureus [3] it was 28 mm; with Nakaseomyces glabratus [4] it was 26 mm. The hemolysis at 1 h, 124.96 µM in data set [19] was 97.4%. Besides, the hemolysis at 1 h, 15.62 µM in data set [20] came out at 0.57%.

Values taken from ChEMBL document CHEMBL3045999, “Synthesis, characterization and antimicrobial activity of 4-amino-1-alkyl pyridinium salts” (Med Chem Res, 2012).
